The results in this text go back to paper PMC2376372, “3-Bromophenyl 6-acetoxymethyl-2-oxo-2H-1-benzopyran-3-carboxylate inhibits cancer cell invasion in vitro and tumour growth in vivo” (British Journal of Cancer, 2003).

For test [1], the target named is T1, HMW-uPA (Homo sapiens, UniProt P00749).
T1 construct: purchased Choay
Put plainly: Inhibition of purified HMW-uPA. The test is classed as biochemical. The conditions noted are these: purified enzyme, pH 7.5, 25°C. How it is done: (§1) Bovine α-CT and LMW-uPA (MW=33 000 Da) were purchased from Sigma, HMW-uPA (MW=54 000 Da) from Choay, trypsin (TRY) and THR from Boehringer-Indelheim (Germany), and MMP-2 and MMP-9 from Calbiochem. Human leucocyte elastase and PM were from Elastase Products Co. and Biogenic, respectively. Except for THR, HMW-uPA, MMP-2 and MMP-9, enzyme concentrations were determined by active-site titrations using the appropriate titrant ([Bender et al, 1966]; [Chase and Shaw, 1970]; [Powers and Gupton, 1977]). Several enzymes were assayed spectrophotometrically at 405 nm using the following p-nitroanilide substrates: succininyl-Ala2-Pro-Phe-p-nitroanilide (Suc-AAPF-p-NA), benzoyl-Arg-p-nitroanilide (Bz-R-p-NA) and methoxysuccinyl-Ala2-Pro-Val-p-nitroanilide (MeO-Suc-AAPV-p-NA) for α-CT, TRY and HLE, respectively (obtained from Sigma); or S-2238 ([…]), S-2444 (<Glu-Gly-Arg-p-nitroanilide) and S-2251 (H-D-Val-Leu-Lys-p-nitroanilide) for THR, HMW- and LMW-uPA, and PM, respectively (from Biogenic). Matrix metalloprotease-2 previously activated by treatment with APMA were assayed at 412 nm with the thiopeptide Ac-Pro-Leu-Gly-^Sleu-Leu-Gly-Oet in the presence of 5,5′-dithiobis(2-nitrobenzenic) acid (DTNB). […]

The target in test [2] is T2, MMP-2 (Homo sapiens, UniProt P08253).
T2 construct: purchased Calbiochem
T2 sequence (P08253 110-660): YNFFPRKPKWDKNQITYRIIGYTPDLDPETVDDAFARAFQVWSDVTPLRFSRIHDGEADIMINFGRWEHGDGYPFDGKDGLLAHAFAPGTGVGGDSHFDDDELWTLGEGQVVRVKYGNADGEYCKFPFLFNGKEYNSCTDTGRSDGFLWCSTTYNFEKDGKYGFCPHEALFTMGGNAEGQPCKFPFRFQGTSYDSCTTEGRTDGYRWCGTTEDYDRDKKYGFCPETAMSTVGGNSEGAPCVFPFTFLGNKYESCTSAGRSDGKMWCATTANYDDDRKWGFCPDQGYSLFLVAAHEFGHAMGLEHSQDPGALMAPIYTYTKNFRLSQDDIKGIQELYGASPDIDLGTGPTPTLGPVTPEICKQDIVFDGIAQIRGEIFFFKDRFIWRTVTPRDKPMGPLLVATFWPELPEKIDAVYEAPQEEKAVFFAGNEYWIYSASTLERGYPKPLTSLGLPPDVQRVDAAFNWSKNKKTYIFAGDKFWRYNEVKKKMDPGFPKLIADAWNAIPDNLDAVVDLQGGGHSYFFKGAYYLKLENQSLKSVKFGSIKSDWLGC
Nature of the test: Inhibition of purified MMP-2. The test is classed as biochemical. The conditions noted are these: purified enzyme, pH 7.5, 25°C. How it is done: as §1

The test system of test [3] is MDA-MB231 cells. Put plainly: Tumorigenicity of MDA-MB231 cells injected s.c. with matrigel in nude mice. The test is classed as in vivo. The following applies: 30 mg kg^−1 i.p. three times per week. How it is done:
Matrigel (basement membrane proteins) was extracted from the mouse Engelbreth–Holm–Swarm (EHS) tumour as previously described ([Noël et al, 1991]). Tumoral cells were detached by trypsinisation, harvested by centrifugation, resuspended in 0.25 ml of serum-free medium and mixed with an equal volume of cold matrigel (10 mg ml^−1). The suspension (1 × 10^6 cells injection site^−1) was injected subcutaneously (s.c.) on both body flanks of 6–8-week-old female athymic nude mice (n=6; nu/nu Swiss mice from Iffa credo, L'Arbresle, France). The coumarin derivatives in PBS were injected intraperitoneally (30 mg kg^−1) three times per week during the whole assay.
The tumorigenicity defines the capacity of cells to induce tumour formation. The larger (a) and smaller (b) diameters of the apparent tumour were measured and served for tumour volume calculation according to a × b^2 × 0.4 ([Attia and Weiss, 1966]). Injected mice were examined weekly. Tumours presenting a volume higher than 80 mm^3 and which maintained a progressive growth were taken into account ([Noël et al, 1992]). Results are expressed as the mean (±s.e.m.) of the tumour volumes.

Consider `CC(=O)OCc1ccc2oc(=O)c(C(=O)Oc3cccc(Cl)c3)cc2c1` [compound 4, 3-chlorophenyl 6-acetoxymethyl-2-oxo-2H-1-benzopyran-3-carboxylate], for which the “inhibition of HMW-uPA” value in test [1] is on record as “not affected”. In addition, the “inhibition of MMP-2” value in test [2] is “not affected”.

With `CC(=O)OCc1ccc2oc(=O)c(C(=O)Oc3cccc(Br)c3)cc2c1` [compound 7, 3-bromophenyl 6-acetoxy-methyl-2-oxo-2H-1-benzopyran-3-carboxylate], the “inhibition of HMW-uPA” value in test [1] is listed as “not affected”. Besides, the “inhibition of MMP-2” value in test [2] is reported as “not affected”. For the same molecule, the “effect on tumour incidence, MDA-MB231” value in test [3] is recorded as “did not affect tumour incidence”. Further, in test [3] (ANOVA, P<0.05), the “effect on tumour growth, MDA-MB231” value is “reduced significantly tumour growth”.
